Data from patent US10111956B2, “Corticosteroid compositions” (TOLMAR, Inc., priority 2013, dated 2018).

Assays:
[1] = Solubility of corticosteroids in neat solvents, measured gravimetrically; assay type: physicochemical; details: for Solubility in PG Monocaprylate: neat PG monocaprylate; for Solubility in PG Monocaprylate / Solubility in PG Monolaurate / Solubility in Isopropyl Myristate: room temperature, examined at about 24 hours; for Solubility in PG Monolaurate: neat PG monolaurate; for Solubility in Isopropyl Myristate: neat isopropyl myristate; for times more soluble in PG monocaprylate than in isopropyl myristate / times more soluble in PG monolaurate than in isopropyl myristate: ratio of Table 1 solubilities
Experimental: (§1) The solubilities of various corticosteroids in propylene glycol (PG) monocaprylate, PG monolaurate, or isopropyl myristate were measured gravimetrically. Corticosteroid, PG monocaprylate, PG monolaurate, and/or isopropyl myristate were placed in glass vials and weighed on an analytical balance to four decimals places. Test solutions were stirred and shaken at room temperature for up to 30 minutes. Test solutions were examined at about 24 hours for clarity or non-dissolved material.

[2] = Solubility of corticosteroid in mixtures of solvent components (procedure of Example 1); assay type: physicochemical
Experimental: as §1

Compound | Solubility in PG Monocaprylate [1] [% w/w] | Solubility in PG Monolaurate [1] [% w/w] | Solubility in Isopropyl Myristate [1] [% w/w] | times more soluble in PG monocaprylate than in isopropyl myristate [1] | times more soluble in PG monolaurate than in isopropyl myristate [1] | other results
CC1(C)O[C@@H]2C[C@H]3[C@@H]4CCC5=CC(=O)C=C[C@]5(C)[C@H]4[C@@H](O)C[C@]3(C)[C@]2(C(=O)CO)O1 [Desonide] | 1.15 | 0.40 |  |  |  | 
CCC(=O)O[C@]1(C(=O)SCF)[C@H](C)C[C@H]2[C@@H]3C[C@H](F)C4=CC(=O)C=C[C@]4(C)[C@@]3(F)[C@@H](O)C[C@@]21C [Fluticasone Propionate] | 0.3 |  | <0.03 | 10 times |  | 
C[C@@H]1C[C@H]2[C@@H]3CCC4=CC(=O)C=C[C@]4(C)[C@@]3(Cl)[C@@H](O)C[C@]2(C)[C@@]1(OC(=O)c1ccco1)C(=O)CCl [Mometasone Fuorate] | 0.7 |  |  |  |  | 
CC1(C)O[C@@H]2C[C@H]3[C@@H]4CCC5=CC(=O)C=C[C@]5(C)[C@@]4(F)[C@@H](O)C[C@]3(C)[C@]2(C(=O)CO)O1 [Triamcinolone Acetonide] | 0.65 | 0.30 | <0.04 | at least 16 times | at least 7.5 times | Solubility in PG Monolaurate ([1]; listed as triamcinolone acetonide): 0.3 % w/w; increase of solubility on addition of ethoxydiglycol to PG alone ([2]; 12:12:0 ethoxydiglycol:PG:PG monocaprylate versus PG alone, Example 5): 1.7 fold; Solubility ([2]; Ethoxydiglycol:PG:PG Monocaprylate 12:0:12, Table 7): 1.53 % w/w; Solubility ([2]; Ethoxydiglycol:PG:PG Monocaprylate 12:3:9, Table 7): 2.00 % w/w; Solubility ([2]; Ethoxydiglycol:PG:PG Monocaprylate 12:6:6, Table 7): 2.30 % w/w; Solubility ([2]; Ethoxydiglycol:PG:PG Monocaprylate 12:9:3, Table 7): 2.45 % w/w; Solubility ([2]; Ethoxydiglycol:PG:PG Monocaprylate 12:12:0, Table 7): 2.45 % w/w; solubility in ethoxydiglycol:PG:PG monocaprylate mixture compared with PG:PG monocaprylate mixture ([2]; FIG. 4): more soluble; solubility in PG:PG monocaprylate mixtures compared with expected solubility (dashed line) ([2]; FIG. 4, each tested mixture containing both PG and PG monocaprylate): more soluble in the mixture than expected; Solubility ([2]; PG:PG Monocaprylate 0:100 (PG monocaprylate alone), Table 6): 0.60 % w/w; Solubility ([2]; PG:PG Monocaprylate 25:75, Table 6): 1.25 % w/w; Solubility ([2]; PG:PG Monocaprylate 50:50, Table 6): 1.60 % w/w; Solubility ([2]; PG:PG Monocaprylate 75:25, Table 6): 1.50 % w/w; Solubility ([2]; PG:PG Monocaprylate 90:10, Table 6): 1.15 % w/w; Solubility ([2]; PG:PG Monocaprylate 100:0 (PG alone), Table 6): 0.90 % w/w

The next lines start with results.

Solubility in PG Monocaprylate [1] [% w/w] | Solubility in PG Monolaurate [1] [% w/w] | Solubility in Isopropyl Myristate [1] [% w/w] | times more soluble in PG monocaprylate than in isopropyl myristate [1] | times more soluble in PG monolaurate than in isopropyl myristate [1] | Compound | other results
4.0 | 2.30 | 0.15 | 27 times | 15.3 times | CCC(=O)OCC(=O)[C@@]1(OC(=O)CC)[C@@H](C)C[C@H]2[C@@H]3CCC4=CC(=O)C=C[C@]4(C)[C@@]3(F)[C@@H](O)C[C@@]21C [Betamethasone Dipropionate] | 
4.0 | 1.80 | 0.25 | 16 times | 7.2 times | CCC(=O)O[C@]1(C(=O)CCl)[C@@H](C)C[C@H]2[C@@H]3CCC4=CC(=O)C=C[C@]4(C)[C@@]3(F)[C@@H](O)C[C@@]21C [Clobetasol Propionate] | 
2.0 | 1.35 | 0.10 | 20 times | 13.5 times | CCCC(=O)O[C@]1(C(=O)CO)CC[C@H]2[C@@H]3CCC4=CC(=O)CC[C@]4(C)[C@H]3[C@@H](O)C[C@@]21C [Hydrocortisone Butyrate] | 
